Experimental data published in patent US7595404B2, “Thiazolyl-substituted carbocyclic 1,3-diones as pesticidal agents” (Bayer CropScience AG, priority 2001, dated 2009).

How the values were obtained:
Avena fatua [1] = experiment: Pre-emergence test, Avena fatua; type: in vivo; details: pre-emergence/greenhouse; 125 g a.i./ha; after three weeks
Description: (§1) • Solvent: 5 parts by weight of acetone • Emulsifier: 1 part by weight of alkylaryl polyglycol ether
(§2) To produce a suitable preparation of active compound, 1 part by weight of active compound is mixed with the stated amount of solvent, the stated amount of emulsifier is added and the concentrate is diluted with water to the desired concentration.
(§3) Seeds of the test plants are sown in normal soil. After about 24 hours, the soil is sprayed with the preparation of active compound such that the particular amounts of active compound desired are applied per unit area. The concentration of the spray liquor is chosen such that the particular amounts of active compound desired are applied in 1000 l of water/ha.
(§4) After three weeks, the degree of damage to the plants is rated in % damage in comparison to the development of the untreated control.
(§5) The figures denote: • 0% =no effect (like untreated control) • 100% =total destruction

Digitaria = experiment: Pre-emergence test, Digitaria; type: in vivo; details: pre-emergence/greenhouse; 125 g a.i./ha; after three weeks
Description: as §1, §2, §3, §4, §5

Avena fatua [2] = experiment: Post-emergence test, Avena fatua; type: in vivo; details: post-emergence/greenhouse; 250 g a.i./ha; after three weeks
Description: as §1, §2
as §3, with “Test plants” for “Seeds”, “a height of 5-15 cm” for “the test plants”, “are” for “are sown in normal soil. After about 24 hours, the soil is”
as §4, §5

Sinapis = experiment: Post-emergence test, Sinapis; type: in vivo; details: post-emergence/greenhouse; 250 g a.i./ha; after three weeks
Description: as §1, §2
as §3, with “Test plants” for “Seeds”, “a height of 5-15 cm” for “the test plants”, “are” for “are sown in normal soil. After about 24 hours, the soil is”
as §4, §5

Alopecurus [3] = experiment: Post-emergence test, Alopecurus; type: in vivo; details: post-emergence/greenhouse; 250 g a.i./ha; after three weeks
Description: as §1, §2
as §3, with “Test plants” for “Seeds”, “a height of 5-15 cm” for “the test plants”, “are” for “are sown in normal soil. After about 24 hours, the soil is”
as §4, §5

Sugar beet = experiment: Pre-emergence test, Sugar beet; type: in vivo; details: pre-emergence/greenhouse; 125 g a.i./ha; after three weeks; crop
Description: as §1, §2, §3, §4, §5

Alopecurus [4] = experiment: Pre-emergence test, Alopecurus; type: in vivo; details: pre-emergence/greenhouse; 125 g a.i./ha; after three weeks
Description: as §1, §2, §3, §4, §5

Polygonum = experiment: Pre-emergence test, Polygonum; type: in vivo; details: pre-emergence/greenhouse; 125 g a.i./ha; after three weeks
Description: as §1, §2, §3, §4, §5

Setaria [5] = experiment: Post-emergence test, Setaria; type: in vivo; details: post-emergence/greenhouse; 250 g a.i./ha; after three weeks
Description: as §1, §2
as §3, with “Test plants” for “Seeds”, “a height of 5-15 cm” for “the test plants”, “are” for “are sown in normal soil. After about 24 hours, the soil is”
as §4, §5

Stellaria = experiment: Pre-emergence test, Stellaria; type: in vivo; details: pre-emergence/greenhouse; 125 g a.i./ha; after three weeks
Description: as §1, §2, §3, §4, §5

Meloidogyne incognita = experiment: Meloidogyne test; type: in vivo; details: 20 ppm active compound, nematicidal action by gall formation on lettuce roots
Description: Meloidogyne Test • Solvent: 30 parts by weight of dimethylformamide • Emulsifier: 1 part by weight of alkylaryl polyglycol ether To produce a suitable preparation of active compound, 1 part by weight of active compound is mixed with the stated amounts of solvent and emulsifier, and the concentrate is diluted with water to the desired concentration. Containers are filled with sand, solution of active compound, Meloidogyne incognita egg/larvae suspension and lettuce seeds. The lettuce seeds germinate the plants develop. On the roots, galls are formed. After the desired period of time, the nematicidal action is determined in % by the gall formation. 100% means that no galls have been found; 0% means that the number of galls on the treated plants corresponds to that of the untreated control.

Lolium = experiment: Pre-emergence test, Lolium; type: in vivo; details: pre-emergence/greenhouse; 125 g a.i./ha; after three weeks
Description: as §1, §2, §3, §4, §5

Soya bean = experiment: Pre-emergence test, Soya bean; type: in vivo; details: pre-emergence/greenhouse; 125 g a.i./ha; after three weeks; crop
Description: as §1, §2, §3, §4, §5

[6] = system: greenhouse red spider mite (Tetranychus urticae); experiment: Tetranychus test (OP-resistant/dip treatment); type: in vivo; details: 100 ppm, dipped bean plants
Description: Tetranychus test (OP-Resistant/Dip Treatment)
• Solvent: 30 parts by weight of dimethylformamide • Emulsifier: 1 part by weight of alkylaryl polyglycol ether
To produce a suitable preparation of active compound, 1 part by weight of active compound is mixed with the stated amounts of solvent and emulsifier, and the concentrate is diluted with emulsifier-containing water to the desired concentration.
Bean plants (Phaseolus vulgaris) which are heavily infested by all stages of the greenhouse red spider mite (Tetranychus urticae) are dipped into a preparation of active compound of the desired concentration.
After the desired period of time, the effect in % is determined. 100% means that all spider mites have been killed; 0% means that none of the spider mites have been killed.

Setaria [7] = experiment: Pre-emergence test, Setaria; type: in vivo; details: pre-emergence/greenhouse; 125 g a.i./ha; after three weeks
Description: as §1, §2, §3, §4, §5

Wheat = experiment: Pre-emergence test, Wheat; type: in vivo; details: pre-emergence/greenhouse; 125 g a.i./ha; after three weeks; crop
Description: as §1, §2, §3, §4, §5

[8] = system: caterpillars of the armyworm (Spodoptera frugiperda); experiment: Spodoptera frugiperda test; type: in vivo; details: 500 ppm, dipped cabbage leaves
Description: (§6) Spodoptera Frugiperda Test • Solvent: 7 parts by weight of dimethylformamide • Emulsifier: 2 parts by weight of alkylaryl polyglycol ether To produce a suitable preparation of active compound, 1 part by weight of active compound is mixed with the stated amounts of solvent and emulsifier, and the concentrate is diluted with emulsifier-containing water to the desired concentration. Cabbage leaves (Brassica oleracea) are treated by being dipped into the preparation of active compound of the desired concentration and are populated with caterpillars of the armyworm (Spodoptera frugiperda) while the leaves are still moist. After the desired period of time, the kill in % is determined. 100% means that all caterpillar larvae have been killed; 0% means that none of the caterpillar have been killed.

[9] = system: larvae of the mustard beetle (Phaedon cochleariae); experiment: Phaedon larvae test; type: in vivo; details: 500 ppm, dipped cabbage leaves
Description: as §6, with “Phaedon Larvae Test” for “Spodoptera Frugiperda Test”, “with larvae” for “with caterpillars”, “the mustard beetle (Phaedon cochleariae)” for “the armyworm (Spodoptera frugiperda)”, “all beetle” for “all caterpillar”, “the beetle larvae” for “the caterpillar”

Galium = experiment: Post-emergence test, Galium; type: in vivo; details: post-emergence/greenhouse; 250 g a.i./ha; after three weeks
Description: as §1, §2
as §3, with “Test plants” for “Seeds”, “a height of 5-15 cm” for “the test plants”, “are” for “are sown in normal soil. After about 24 hours, the soil is”
as §4, §5

Septoria tritici = experiment: In vitro test for the ED50 determination in microorganisms, Septoria tritici; type: cell-based; details: 50% inhibition of fungal growth, tested at 0.1, 1, 10 and 100 ppm, 22° C., 3-5 days, photometric 620 nm
Pyricularia oryzae = type: cell-based; details: 50% inhibition of fungal growth, tested at 0.1, 1, 10 and 100 ppm, 22° C., 3-5 days, photometric 620 nm
Ustilago avenae = experiment: In vitro test for the ED50 determination in microorganisms, Ustilago avenae; type: cell-based; details: 50% inhibition of fungal growth, tested at 0.1, 1, 10 and 100 ppm, 22° C., 3-5 days, photometric 620 nm
Abutilon = experiment: Pre-emergence test, Abutilon; type: in vivo; details: pre-emergence/greenhouse; 125 g a.i./ha; after three weeks
Description: as §1, §2, §3, §4, §5

Echinochloa = experiment: Post-emergence test, Echinochloa; type: in vivo; details: post-emergence/greenhouse; 250 g a.i./ha; after three weeks
Description: as §1, §2
as §3, with “Test plants” for “Seeds”, “a height of 5-15 cm” for “the test plants”, “are” for “are sown in normal soil. After about 24 hours, the soil is”
as §4, §5

Bromus = experiment: Pre-emergence test, Bromus; type: in vivo; details: pre-emergence/greenhouse; 125 g a.i./ha; after three weeks
Description: as §1, §2, §3, §4, §5

Sugar-beet = experiment: Post-emergence test, Sugar beet; type: in vivo; details: post-emergence/greenhouse; 250 g a.i./ha; after three weeks; crop
Description: as §1, §2
as §3, with “Test plants” for “Seeds”, “a height of 5-15 cm” for “the test plants”, “are” for “are sown in normal soil. After about 24 hours, the soil is”
as §4, §5

[10] = system: green peach aphid (Myzus persicae); experiment: Myzus test (systemic action); type: in vivo; details: 20 ppm, watering of infested Savoy cabbage (systemic)
Description: Myzus Test (Systemic Action) • Solvent: 7 parts by weight of dimethylformamide • Emulsifier: 2 parts by weight of alkylaryl polyglycol ether To produce a suitable preparation of active compound, 1 part by weight of active compound is mixed with the stated amounts of solvent and emulsifier, and the concentrate is diluted with emulsifier-containing water to the desired concentration. Savoy cabbage (Brassica oleracea) which is heavily infested by the green peach aphid (Myzus persicae) is watered with in each case 10 ml of preparation of active compound of the desired concentration such that the preparation of active compound penetrates into the soil without wetting the seedling. The active compound is taken up by the roots and transferred into the seedling. After the desired period of time, the kill in % is determined. 100% means that all aphids have been killed; 0% means that none of the aphids have been killed.

Oilseed rape = experiment: Pre-emergence test, Oilseed rape; type: in vivo; details: pre-emergence/greenhouse; 125 g a.i./ha; after three weeks; crop
Description: as §1, §2, §3, §4, §5

Matricaria = experiment: Pre-emergence test, Matricaria; type: in vivo; details: pre-emergence/greenhouse; 125 g a.i./ha; after three weeks
Description: as §1, §2, §3, §4, §5

Compound | % damage, Avena fatua (Avena fatua [2]) [%] | % damage, Sinapis (Sinapis) [%] | % damage, Alopecurus (Alopecurus [3]) [%] | % damage, Alopecurus (Alopecurus [4]) [%] | % damage, Setaria (Setaria [5]) [%] | % damage, Stellaria (Stellaria) [%] | % damage, Lolium (Lolium) [%] | % damage, Soya bean (Soya bean) [%] | Kill rate in % after 7 d [6] [%] | % damage, Setaria (Setaria [7]) [%] | Kill rate in % after 7 d [8] [%] | further results
CCc1sc(-c2ccc(Cl)cc2)nc1C1=C(O)C2(CCCCC2)CC1=O [Example I-1-a-3] | 100 | 80 | 90 | 95 | 100 |  |  |  |  |  |  | % damage, Avena fatua (Avena fatua [1]): 100%; % damage, Digitaria (Digitaria): 100%; % damage, Sugar beet (Sugar beet): 0%; % damage, Polygonum (Polygonum): 100%
CCOC(=O)OC1=C(c2nc(-c3ccc(Cl)cc3)sc2CC)C(=O)CC12CCCCC2 [Example I-1-c-3] | 100 | 80 | 100 | 95 | 100 | 70 | 100 | 0 | 98 | 100 |  | Kill rate in % after 14 d (Meloidogyne incognita): 100%; % damage, Wheat (Wheat): 10%
CCOC(=O)OC1=C(c2nc(-c3ccc(Cl)cc3)sc2C)C(=O)CC(C)(C)C1 [Example I-2-c-1] | 100 |  | 90 |  | 100 |  |  |  | 100 |  | 100 | Kill rate in % after 7 d [9]: 100%; % damage, Galium (Galium): 80%
Cc1sc(-c2ccc(Cl)cc2)nc1C1=C(O)C(C)(C)CCC1=O [Example I-2-a-3] |  |  |  |  |  |  |  |  |  |  |  | ED50 value (Septoria tritici): <0.1 ppm; ED50 value (Pyricularia oryzae): <0.1 ppm; ED50 value (Ustilago avenae): 0.1 ppm
Cc1sc(-c2ccc(Cl)cc2)nc1C1=C(O)CC(C)(C)CC1=O [Example I-2-a-1] | 95 |  | 90 |  | 100 |  | 100 | 0 | 98 | 100 | 100 | % damage, Abutilon (Abutilon): 70%; % damage, Echinochloa (Echinochloa): 100%; % damage, Bromus (Bromus): 95%; % damage, Sugar-beet (Sugar-beet): 0%
CCOC(=O)OC1=C(c2nc(-c3ccc(Cl)cc3)sc2C)C(=O)CC1(C)C [Example I-1-c-1] | 90 | 70 |  |  | 100 |  |  |  | 95 |  | 100 | % damage, Echinochloa (Echinochloa): 100%; Kill rate in % after 7 d [9]: 100%; % damage, Sugar-beet (Sugar-beet): 0%
Cc1sc(-c2ccc(Cl)cc2)nc1C1=C(O)CCCC1=O [Example I-2-a-2] |  |  |  |  |  |  |  |  | 99 |  |  | ED50 value (Septoria tritici): <0.1 ppm; ED50 value (Pyricularia oryzae): 1.96 ppm; ED50 value (Ustilago avenae): <0.1 ppm
CCOC(=O)OC1=C(c2nc(-c3ccc(Cl)cc3)sc2C)C(=O)CC12CCCCC2 [Example I-1-c-2] |  |  |  | 95 |  | 100 | 100 |  |  |  |  | Kill rate in % after 10 d [10]: 95%; % damage, Digitaria (Digitaria): 100%; % damage, Oilseed rape (Oilseed rape): 0%
Cc1sc(-c2ccc(Cl)cc2)nc1C1=C(O)C(C)(C)CC1=O [Example I-1-a-1] | 100 | 70 | 100 |  | 100 | 100 | 100 | 0 | 100 | 100 |  | Kill rate in % after 14 d (Meloidogyne incognita): 95%; % damage, Matricaria (Matricaria): 100%
